Measured values from PubChem BioAssay (NCI).
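How tested: cells in 96-well plates exposed to compound for 48 hours at five concentrations. GI50 marks 50% less growth. TGI denotes the concentration required for complete inhibition of growth.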

Key:
Experiment in all cases: NCI-60 cell line screen, 48 h
[1] = test system: SK-MEL-5 melanoma
[2] = test system: HS 578T breast
[3] = test system: SF-539 CNS
[4] = test system: ACHN renal
[5] = test system: SF-268 CNS
[6] = test system: MCF7 breast
[7] = test system: SW-620 colon
[8] = test system: SK-OV-3 ovarian
[9] = test system: RPMI-8226 leukemia
[10] = test system: M14 melanoma
[11] = test system: HOP-92 NSCLC
[12] = test system: SN12C renal
[13] = test system: NCI/ADR-RES ovarian
[14] = test system: BT-549 breast
[15] = test system: HOP-62 NSCLC
[16] = test system: DU-145 prostate
[17] = test system: SF-295 CNS
[18] = test system: MDA-MB-435
[19] = test system: NCI-H23 lung
[20] = test system: HL-60(TB) leukemia
[21] = test system: HCT-116 colon
[22] = test system: A498 renal
[23] = test system: UO-31 renal
[24] = test system: OVCAR-4 ovarian
[25] = test system: SK-MEL-28 melanoma
[26] = test system: K-562 leukemia
[27] = test system: MOLT-4 leukemia
[28] = test system: CCRF-CEM leukemia
[29] = test system: UACC-62 melanoma
[30] = test system: HT29 colon
[31] = test system: OVCAR-5 ovarian
[32] = test system: OVCAR-8 ovarian
[33] = test system: TK-10 renal
[34] = test system: IGROV1 ovarian
[35] = test system: 786-0 renal
[36] = test system: SNB-19 CNS
[37] = test system: SR leukemia
[38] = test system: SNB-75 CNS
[39] = test system: KM12 colon
[40] = test system: UACC-257 melanoma
[41] = test system: RXF 393 renal
[42] = test system: U251 CNS
[43] = test system: MALME-3M melanoma
[44] = test system: COLO 205 colon
[45] = test system: OVCAR-3 ovarian
[46] = test system: HCT-15 colon
[47] = test system: LOX IMVI melanoma
[48] = test system: PC-3 prostate
[49] = test system: NCI-H460 lung
[50] = test system: T-47D breast
[51] = test system: A549 NSCLC
[52] = test system: SK-MEL-2 melanoma
[53] = test system: NCI-H226 lung
[54] = test system: NCI-H522 lung
[55] = test system: MDA-MB-231 breast
[56] = test system: CAKI-1 renal
[57] = test system: HCC-2998 colon
[58] = test system: EKVX NSCLC

Cc1cc(-c2ccccc2)c(C)n1Cc1ccc(Cl)cc1
GI50 [1]: 4.23 µM | TGI [1]: 66.8 µM | GI50 [2]: 4.43 µM | TGI [2]: > 100 µM | GI50 [3]: 2.8 µM | TGI [3]: 12.1 µM | GI50 [4]: 4.99 µM | TGI [4]: > 100 µM | GI50 [5]: 13.6 µM | TGI [5]: > 100 µM | GI50 [6]: 3.11 µM | TGI [6]: > 100 µM | GI50 [7]: 3.06 µM | TGI [7]: > 100 µM | GI50 [8]: 5.92 µM | TGI [8]: > 100 µM | GI50 [9]: 3.83 µM | TGI [9]: 61.6 µM | GI50 [10]: 3.21 µM | TGI [10]: 31.6 µM | GI50 [11]: 1.51 µM | TGI [11]: 9.28 µM | GI50 [12]: 5.78 µM | TGI [12]: > 100 µM | GI50 [13]: 3.64 µM | TGI [13]: 66.3 µM | GI50 [14]: 5.5 µM | TGI [14]: > 100 µM | GI50 [15]: 6.12 µM | TGI [15]: > 100 µM | GI50 [16]: 6.87 µM | TGI [16]: > 100 µM | GI50 [17]: 2.74 µM | TGI [17]: 9.33 µM | GI50 [18]: 0.368 µM | TGI [18]: 2.55 µM | GI50 [19]: 8.24 µM | TGI [19]: > 100 µM | GI50 [20]: 4.3 µM | TGI [20]: 55.8 µM | GI50 [21]: 3.8 µM | TGI [21]: 23.4 µM | GI50 [22]: 2.21 µM | TGI [22]: 47.9 µM | GI50 [23]: 5.45 µM | TGI [23]: > 100 µM | GI50 [24]: 9.56 µM | TGI [24]: > 100 µM | GI50 [25]: 6.18 µM | TGI [25]: > 100 µM | GI50 [26]: 0.84 µM | TGI [26]: > 100 µM | GI50 [27]: 4.84 µM | TGI [27]: 91.9 µM | GI50 [28]: 3.46 µM | TGI [28]: > 100 µM | GI50 [29]: 3.44 µM | TGI [29]: > 100 µM | GI50 [30]: 3.28 µM | TGI [30]: 17.6 µM | GI50 [31]: 12.3 µM | TGI [31]: > 100 µM | GI50 [32]: 5.95 µM | TGI [32]: > 100 µM | GI50 [33]: 9.66 µM | TGI [33]: 65.4 µM | GI50 [34]: 5.21 µM | TGI [34]: > 100 µM | GI50 [35]: 5.35 µM | TGI [35]: 39.9 µM | GI50 [36]: 36.4 µM | TGI [36]: > 100 µM | GI50 [37]: 0.592 µM | TGI [37]: 26.7 µM | GI50 [38]: 3.17 µM | TGI [38]: > 100 µM | GI50 [39]: 4.26 µM | TGI [39]: > 100 µM | GI50 [40]: 5.39 µM | TGI [40]: 78.6 µM | GI50 [41]: 2.33 µM | TGI [41]: 16.6 µM | GI50 [42]: 4.65 µM | TGI [42]: > 100 µM | GI50 [43]: 3.85 µM | TGI [43]: 39.1 µM | GI50 [44]: 5.96 µM | TGI [44]: 27.8 µM | GI50 [45]: 3.54 µM | TGI [45]: 23.5 µM | GI50 [46]: 2.86 µM | TGI [46]: > 100 µM | GI50 [47]: 6.95 µM | TGI [47]: > 100 µM | GI50 [48]: 5.18 µM | TGI [48]: > 100 µM | GI50 [49]: 3.75 µM | TGI [49]: > 100 µM | GI50 [50]: 5.26 µM | TGI [50]: > 100 µM | GI50 [51]: 5.73 µM | TGI [51]: > 100 µM | GI50 [52]: 4.24 µM | TGI [52]: 19.5 µM | GI50 [53]: 26.3 µM | TGI [53]: > 100 µM | GI50 [54]: 2.57 µM | TGI [54]: 9.26 µM | GI50 [55]: 6.17 µM | TGI [55]: 32.3 µM | GI50 [56]: 3.66 µM | TGI [56]: > 100 µM | GI50 [57]: 15.1 µM | TGI [57]: 93.7 µM

COc1cc2c(cc1OCCCCCCNC(=O)c1cc3ccccc3[nH]1)N=CC1CCCN1C2=O (centres undefined)
GI50 [1]: 14.2 µM | TGI [1]: 32 µM | GI50 [2]: 30.6 µM | TGI [2]: > 100 µM | GI50 [3]: 17 µM | TGI [3]: 33.4 µM | GI50 [4]: 35.2 µM | TGI [4]: > 100 µM | GI50 [5]: 6.8 µM | TGI [5]: 26 µM | GI50 [6]: 27.3 µM | TGI [6]: > 100 µM | GI50 [7]: 38.6 µM | TGI [7]: > 100 µM | GI50 [8]: 64.8 µM | TGI [8]: > 100 µM | GI50 [9]: 18.7 µM | TGI [9]: 77.6 µM | GI50 [10]: 65.5 µM | TGI [10]: > 100 µM | GI50 [11]: 25.3 µM | TGI [11]: > 100 µM | GI50 [12]: 65 µM | TGI [12]: > 100 µM | GI50 [13]: 31.7 µM | TGI [13]: > 100 µM | GI50 [14]: 21.7 µM | TGI [14]: 74.2 µM | GI50 [15]: 50.2 µM | TGI [15]: > 100 µM | GI50 [16]: 21.6 µM | TGI [16]: 72.1 µM | GI50 [17]: 31.1 µM | TGI [17]: > 100 µM | GI50 [18]: 39.3 µM | TGI [18]: > 100 µM | GI50 [19]: 51 µM | TGI [19]: > 100 µM | GI50 [20]: 41.2 µM | TGI [20]: > 100 µM | GI50 [21]: 45.6 µM | TGI [21]: > 100 µM | GI50 [22]: 26.3 µM | TGI [22]: 64.2 µM | GI50 [23]: 33.9 µM | TGI [23]: > 100 µM | GI50 [24]: 89.4 µM | TGI [24]: > 100 µM | GI50 [25]: > 100 µM | TGI [25]: > 100 µM | GI50 [26]: 30.5 µM | TGI [26]: > 100 µM | GI50 [27]: 31.6 µM | TGI [27]: > 100 µM | GI50 [28]: 27.3 µM | TGI [28]: > 100 µM | GI50 [29]: 39.5 µM | TGI [29]: > 100 µM | GI50 [30]: 41.8 µM | TGI [30]: > 100 µM | GI50 [31]: > 100 µM | TGI [31]: > 100 µM | GI50 [32]: 30.5 µM | TGI [32]: > 100 µM | GI50 [33]: 20.7 µM | TGI [33]: 93.6 µM | GI50 [34]: 17.4 µM | TGI [34]: > 100 µM | GI50 [35]: > 100 µM | TGI [35]: > 100 µM | GI50 [36]: 63.1 µM | TGI [36]: > 100 µM | GI50 [38]: 64.2 µM | TGI [38]: > 100 µM | GI50 [39]: 34.8 µM | TGI [39]: > 100 µM | GI50 [40]: 14.4 µM | TGI [40]: 51.2 µM | GI50 [41]: 35.3 µM | TGI [41]: 54.6 µM | GI50 [42]: 40 µM | TGI [42]: > 100 µM | GI50 [43]: 20.5 µM | TGI [43]: > 100 µM | GI50 [58]: 14.4 µM | TGI [58]: 65.4 µM | GI50 [44]: 45.4 µM | TGI [44]: > 100 µM | GI50 [45]: 6.17 µM | TGI [45]: > 100 µM | GI50 [46]: 32.1 µM | TGI [46]: > 100 µM | GI50 [47]: 31.8 µM | TGI [47]: > 100 µM | GI50 [48]: 36 µM | TGI [48]: > 100 µM | GI50 [49]: 16.8 µM | TGI [49]: 62.7 µM | GI50 [50]: 15.4 µM | TGI [50]: > 100 µM | GI50 [51]: 39 µM | TGI [51]: > 100 µM | GI50 [53]: 58 µM | TGI [53]: > 100 µM | GI50 [54]: 18.7 µM | TGI [54]: 88.1 µM | GI50 [55]: 20.9 µM | TGI [55]: 79.1 µM | GI50 [57]: 35.8 µM | TGI [57]: > 100 µM
